{"source": "patent US20230158071A1", "about": "“TUMOR COMBINED IMMUNOTHERAPY” (CRAGE medical Co., Limited, priority 2018, published 2023)", "assay_type_in_all_cases": "cell-based, mouse", "key": {"E0771-EGFRvIII cells": {"system": "E0771-EGFRvIII cells", "assay": "LDH cytotoxicity assay, CAR-T killing of olaparib-treated E0771-EGFRvIII cells", "experimental": "The experimental groups for incubating with cells that are positive for the antigen target comprises the following 4 groups: UTD group, 806-mCD28z-CAR-T group (or denoted as 806-28Z), olaparib pretreatment group, and olaparib combined treatment group;\nthe olaparib pretreatment group comprises: UTD+1 μM olaparib pretreatment group (or denoted as UTD+Olaparib 1 μM pretreatment), UTD+5 μM olaparib pretreatment group (or denoted as UTD+Olaparib 5 μM pretreatment), 806-mCD28z-CAR-T+1 μM olaparib pretreatment group (or denoted as 806-28Z+Olaparib 1 μM pretreatment). 806-mCD28z-CAR-T+5 μM olaparib pretreatment group (or denoted as 806-28Z+Olaparib 5 μM pretreatment); […]\nOlaparib pretreatment group: different concentrations of olaparib (1 μM, 5 μM) are added to the medium for culturing E0771-EGFRVIII or 4T1-EGFRvIII tumor cells respectively, culturing at 37° C. for 24 h, and then the cells are treated with trypsin and resuspended in fresh medium. The untreated mouse T cells and 806-mCD28z-CAR T cells in Example 1 are respectively taken to incubate with E0771-EGFRvIII or 4T1-EGFRVIII cells pretreated with different concentrations of olaparib at a ratio of 1:3, 1:1, and 3:1; 16 hours later, the secretion of LDH in the supernatant is detected by Cytox 96 Non-Radioactive Cytotoxicity Assay, then calculating the killing toxicity of 806-mCD28z CAR T cells to tumor cells pretreated with different concentrations of olaparib. […] Cytox 96 Non-Radioactive Cytotoxicity Assay (Promaga, REF: G1782); at the same time, the secretions of cytokines Granzyme B, IFN-γ, and IL-2 in the supernatant are detected by ELISA kit (Lianke Biotech Co. Ltd. CAT: 18^.22), for specific experimental procedures, referring to instructions of MouseGranzyme B, IFN-γ, IL-2 ELISA kit from Lianke Biotech Co, Ltd. […]"}, "806-mCD28z-CAR-T cells": {"system": "806-mCD28z-CAR-T cells", "assay": "Flow cytometry (CellTrace) of CAR-T proliferation in co-culture with breast cancer cells", "details": "co-incubation 1:1, 16 hours", "experimental": "The experimental groups are as follows: 806-mCD28z-CAR-T group (or denoted as 806-28Z), olaparib pretreatment group, and olaparib combined treatment group;\nThe olaparib pretreatment group comprises: 806-mCD28z-CAR-T+1 μM olaparib pretreatment group (or denoted as 806-28Z+Olaparib 1 μM pretreatment), 806-mCD28z-CAR-T+5 μM olaparib pretreatment group (or denoted as 806-28Z+Olaparib 5 μM pretreatment);\nOlaparib combined treatment group comprises: 806-mCD28z-CAR-T+1 μM olaparib combined treatment group (or denoted as 806-28Z+Olaparib 1 μM), 806-mCD28z-CAR-T+5 μM olaparib combined treatment group (or denoted as 806-28Z+Olaparib 5 μM).\nBefore the co-incubation experiment, 806-mCD28z-CAR-T cells need to be stained with CellTrace dye. […]\nOlaparib pretreatment group: different concentrations of olaparib (1 μM, 5 μM) are respectively added to a medium for culturing E0771-EGFRvIII or 4T1-EGFRvIII tumor cells, after culturing at 37° C. for 24 hours, the cells are treated with trypsin and resuspended in fresh medium. 806-mCD28z-CAR T cells in Example 1 are taken to co-incubate with E0771-EGFRVIII or 4T1-EGFRvIII cells pretreated with different concentrations of olaparib at a ratio of 1:1; 16 hours later, the proliferation of CAR-T cells and the expression levels of the T cell exhaustion-related proteins PD1, LAG3 and TIM3 on the surface of CAR-T cells are detected by flow cytometry. […]"}, "[1]": {"system": "cytokines Granzyme B, IFN-γ, and IL-2", "assay": "ELISA of cytokines in supernatant of co-cultured E0771-EGFRvIII cells and CAR-T cells", "details": "E0771-EGFRvIII co-culture", "experimental": "Olaparib pretreatment group: different concentrations of olaparib (1 μM, 5 μM) are added to the medium for culturing E0771-EGFRVIII or 4T1-EGFRvIII tumor cells respectively, culturing at 37° C. for 24 h, and then the cells are treated with trypsin and resuspended in fresh medium. The untreated mouse T cells and 806-mCD28z-CAR T cells in Example 1 are respectively taken to incubate with E0771-EGFRvIII or 4T1-EGFRVIII cells pretreated with different concentrations of olaparib at a ratio of 1:3, 1:1, and 3:1; 16 hours later, the secretion of LDH in the supernatant is detected by Cytox 96 Non-Radioactive Cytotoxicity Assay, then calculating the killing toxicity of 806-mCD28z CAR T cells to tumor cells pretreated with different concentrations of olaparib. For specific detection steps and calculation methods, see the instructions of Promaga. Cytox 96 Non-Radioactive Cytotoxicity Assay (Promaga, REF: G1782); at the same time, the secretions of cytokines Granzyme B, IFN-γ, and IL-2 in the supernatant are detected by ELISA kit (Lianke Biotech Co. Ltd. CAT: 18^.22), for specific experimental procedures, referring to instructions of MouseGranzyme B, IFN-γ, IL-2 ELISA kit from Lianke Biotech Co, Ltd.\nOlaparib combined treatment group: different concentrations of olaparib (1 μM, 5 μM) are added to the medium for culturing E0771-EGFRVIII or 4T1-EGFRvIII tumor cells respectively, culturing at 37° C. for 24 h, and then the cells are treated with trypsin and resuspended in fresh medium. The untreated mouse T cells and 806-mCD28z-CAR T cells in Example 1 are respectively taken to incubate with E0771-EGFRvIII or 4T1-EGFRvIII cells treated with different concentrations of olaparib at a ratio of 1:3, 1:1, and 3:1; after corresponding concentrations of olaparib (1 μM, 5 μM) are added to treat the cells continuously for 16 hours, the secretion of LDH in the supernatant is detected by Cytox 96 Non-Radioactive Cytotoxicity Assay, then calculating the killing toxicity of 806-mCD28z CAR T cells to tumor cells pretreated with different concentrations of olaparib. […]"}, "[2]": {"details": "olaparib pretreatment and combined treatment groups vs CAR-T single treatment group"}}}
{"molecule": "O=C(c1cc(Cc2n[nH]c(=O)c3ccccc23)ccc1F)N1CCN(C(=O)C2CC2)CC1", "note": "[olaparib]", "values": [{"measurement": "lethal effect on E0771-EGFRvIII cells compared with the CAR-T single treatment group", "setting": "E0771-EGFRvIII cells; 5 μM olaparib combined treatment group", "result": "higher synergistic lethal effect"}, {"measurement": "promotion of the killing effect of CAR-T cells on E0771-EGFRvIII cells", "setting": "E0771-EGFRvIII cells; 5 μM olaparib pretreatment group, better than 5 μM combined treatment group", "result": "most significant"}, {"measurement": "killing effect of CAR-T cells on E0771-EGFRvIII cells", "setting": "E0771-EGFRvIII cells; olaparib 1 μM or 5 μM, pretreatment or combined treatment, vs CAR-T alone, ratio 1:3, 1:1, 3:1, 16 hours, LDH", "result": "significantly improved"}, {"measurement": "proliferation of CART cells", "setting": "806-mCD28z-CAR-T cells; olaparib combined treatment group (1 μM, 5 μM), not statistically significant", "result": "slightly inhibited"}, {"measurement": "proliferation of CART cells", "setting": "806-mCD28z-CAR-T cells; olaparib pretreatment group (1 μM, 5 μM)", "result": "not significantly affected"}, {"measurement": "level of Granzyme B in the supernatant", "setting": "[1]; [2]", "result": "do not increase significantly"}, {"measurement": "level of IL-2 in the supernatant", "setting": "[1]; [2]", "result": "do not increase significantly"}, {"measurement": "level of IFN-γ in the supernatant", "setting": "[1]; olaparib pretreatment group and olaparib combined treatment group vs CAR-T single treatment group", "result": "significantly increased"}]}
